ChEMBL document CHEMBL1141665, “Quantitative structure-activity relationship studies of a series of non-benzodiazepine structural ligands binding to benzodiazepine receptor” (Eur J Med Chem, 2008)

Experiment: Displacement of [3H]diazepam from GABAA/BzR in rat brain membrane
Type: cell membranes

Compound: CCOC(=O)c1cc2c(cn1)sc1ccccc12
- pIC50: 5.77

Compound: CCOC(=O)c1cc2c(cn1)oc1ccccc12
- pIC50: 5.04

Compound: Cc1cc(-n2[nH]c3c(cnc4cc(F)ccc43)c2=O)cs1
- pIC50: 9.05

Compound: c1ccc2c(c1)[nH]c1c2ncc2[nH]c3ccccc3c21
- pIC50: 8.4

Compound: c1ccc2c(c1)[nH]c1cnccc12 [NORHARMANE]
- pIC50: 5.79

Compound: Cc1cc(-n2[nH]c3c(cnc4ccccc43)c2=O)cs1
- pIC50: 9.35

Compound: COc1ccc2[nH]c3c4c5ccccc5nc-4c[nH]c3c2c1
- pIC50: 6.05

Compound: O=[N+]([O-])c1ccc2[nH]c3c[nH]c4c5cc(Cl)ccc5nc-4c3c2c1
- pIC50: 5.92

Compound: O=c1c2cnc3ccccc3c2[nH]n1-c1csc(Cl)c1
- pIC50: 8.99

Compound: Cc1ccc2[nH]c3c4c5ccccc5nc-4c[nH]c3c2c1
- pIC50: 6.65

Compound: Cc1ccc2c(c1)[nH]c1c3c4ccccc4nc-3c[nH]c12
- pIC50: 8.1

Compound: COc1cc2c(cn1)[nH]c1ccccc12
- pIC50: 6.91

Compound: Nc1ccc2[nH]c3c[nH]c4c5ccccc5nc-4c3c2c1
- pIC50: 7.36

Compound: Cc1ccc2[nH]cc3c(=O)n(-c4csc(C)c4)nc-3c2c1
- pIC50: 9.27

Compound: Oc1ccc2c(c1)[nH]c1c3c4ccccc4nc-3c[nH]c12
- pIC50: 8.22

Compound: Oc1cc2c3ccccc3nc-2c[nH]1
- pIC50: 5.4

Compound: Brc1cccc2c1[nH]c1c3c4ccccc4nc-3c[nH]c12
- pIC50: 7.55

Compound: Cc1cc(-n2nc3c4cc(F)ccc4[nH]cc-3c2=O)cs1
- pIC50: 9.29

Compound: Cc1nccc2c1[nH]c1ccccc12 [HARMAN]
- pIC50: 4.91

Compound: COc1ccc2c(c1)[nH]c1c2ncc2[nH]c3ccccc3c21
- pIC50: 8.1

Compound: Clc1ccc2[nH]c3c4c5ccccc5nc-4c[nH]c3c2c1
- pIC50: 5.67

Compound: CCOC(=O)c1cc2c(cn1)Cc1ccccc1-2
- pIC50: 6.17

Compound: Clc1cccc2c1[nH]c1c3c4ccccc4nc-3c[nH]c12
- pIC50: 7.1

Compound: Cn1c2ccccc2c2c1ccc1c3ccccc3n(C)c12
- pIC50: 5.72

Compound: Cn1c2ccccc2c2[nH]cc3nc4ccccc4c-3c21
- pIC50: 6.8

Compound: Clc1cccc2[nH]c3c4c5ccccc5nc-4c[nH]c3c12
- pIC50: 6.15

Compound: Brc1ccc2c(c1)[nH]c1c3c4ccccc4nc-3c[nH]c12
- pIC50: 7.72

Compound: c1ccc(Oc2ccc3[nH]c4c(ncc5[nH]c6ccccc6c54)c3c2)cc1
- pIC50: 5.8

Compound: Clc1cc2c(cn1)[nH]c1ccccc12
- pIC50: 7.35

Compound: O=c1c2cnc3ccccc3c2[nH]n1-c1ccsc1
- pIC50: 8.99

Compound: COC(=O)c1cc2c(cn1)[nH]c1ccccc12 [BETA-CCM]
- pIC50: 8.3

Compound: O=[N+]([O-])c1cc2c3ccccc3nc-2c[nH]1
- pIC50: 6.9

Compound: Cc1cccc2c1[nH]c1c3c4ccccc4nc-3c[nH]c12
- pIC50: 7.08

Compound: O=[N+]([O-])c1ccc2[nH]c3c[nH]c4c5ccccc5nc-4c3c2c1
- pIC50: 8.4

Compound: CCc1nc2c3ccccc3[nH]c2c2c1[nH]c1ccccc12
- pIC50: 6.6

Compound: O=C1C2C=Nc3ccccc3C2=NN1c1ccccc1 (centres undefined) [CGS-8216]
- pIC50: 9.51

Compound: Fc1cccc2c1[nH]c1c3c4ccccc4nc-3c[nH]c12
- pIC50: 7.92

Compound: Oc1ccc2[nH]c3c4c5ccccc5nc-4c[nH]c3c2c1
- pIC50: 6.94

Compound: Cn1c2ccccc2c2c3[nH]c4ccccc4c3ncc21
- pIC50: 5.94

Compound: O=[N+]([O-])c1ccc2[nH]c3c[nH]c4c5ccc(Cl)cc5nc-4c3c2c1
- pIC50: 6.9

Compound: Brc1ccc2[nH]c3cnc4c5ccccc5[nH]c4c3c2c1
- pIC50: 8.22

Compound: Nc1ccc2[nH]c3c[nH]c4c5ccc(Cl)cc5nc-4c3c2c1
- pIC50: 7.01

Compound: Cc1cc(-n2nc3c4cc(Cl)ccc4[nH]cc-3c2=O)cs1
- pIC50: 9.06

Compound: Clc1ccc2[nH]c3c[nH]c4c5cccc(Cl)c5nc-4c3c2c1
- pIC50: 6.51

Compound: Cc1cc(-n2[nH]c3c(cnc4cc(Cl)ccc43)c2=O)cs1
- pIC50: 8.96

Compound: Brc1ccc2[nH]c3c4c5ccccc5nc-4c[nH]c3c2c1
- pIC50: 6.12

Compound: COc1cccc2[nH]c3c4c5ccccc5nc-4c[nH]c3c12
- pIC50: 6.6

Compound: Oc1cccc2[nH]c3c4c5ccccc5nc-4c[nH]c3c12
- pIC50: 6.24

Compound: Fc1ccc2c(c1)[nH]c1c3c4ccccc4nc-3c[nH]c12
- pIC50: 8.15

Compound: Clc1ccc2c(c1)[nH]c1c2ncc2[nH]c3ccccc3c21
- pIC50: 8

Compound: Fc1ccc2[nH]c3c4c5ccccc5nc-4c[nH]c3c2c1
- pIC50: 8.22

Compound: Cc1ccc2c(c1)ncc1c(=O)n(-c3csc(C)c3)[nH]c12
- pIC50: 8.87

Compound: Cc1cc(-n2nc3c4ccccc4n(C)cc-3c2=O)cs1
- pIC50: 6.52

Compound: O=C1C2C=Nc3ccccc3C2=NN1c1ccc(Cl)cc1 (centres undefined) [CGS-9896]
- pIC50: 8.94
